Values of other authors as cited in US20070207107A1, “Silicone based emulsions for topical drug delivery” (priority 2006, published 2007).

Key:
[1] = result in words
[2] = drug dissolved in 98% hexamethyldisiloxane and 2% silicone gum

skin penetration from silicone formulation compared with silicone-free emulsion [2]	SMILES	skin permeability (classification) [1]
	Cn1c(=O)c2c(ncn2C)n(C)c1=O [Caffeine]	relatively high skin permeability
reduced penetration	Clc1ccc(COC(Cn2ccnc2)c2ccc(Cl)cc2Cl)cc1 (stereo not shown) [econazole nitrate]	
increased the penetration	CC(C)Cc1ccc(C(C)C(=O)O)cc1 (stereo not shown) [ibuprofen]	

SMILES	skin penetration from silicone formulation compared with silicone-free emulsion [2]	skin permeability (classification) [1]
C[C@]12CCC(=O)C=C1CC[C@@H]1[C@@H]2[C@@H](O)C[C@@]2(C)[C@H]1CC[C@]2(O)C(=O)CO [hydrocortisone]	formation of a reservoir of hydrocortisone in the stratum corneum	
